Patent US4089965A, “Thiazolylphenylguanidines as antirhinovirus agents” (American Cyanamid Company, priority 1977, dated 1978)
≈ marks a conversion by molar mass, not a printed value. Where “and” joins values, the source holds several entries; their conditions need not be identical. Equal entries are not always repeated.

Tests used:
[1] = tested on: Coxsackievirus A-5; assay: Plaque assay, minimal inhibitory concentration; type: cell-based; details: HeLa Cells, inhibiting virus plaque formation by 50%
[2] = tested on: Poliovirus Type 1; assay: microbe, parasite or virus in culture; type: cell-based; details: Enterovirus C, HeLa, read-out: Minimal Inhibitory Concentration
[3] = tested on: Rhinovirus Type 1B; assay: Viral sensitivity, filter disc method; type: cell-based; details: strain B632; about 50 mcg per disc, HeLa, 33° C., 4 to 5 days
Protocol: (§1) In the test for viral sensitivity, by the filter disc method, 5 mg. of 1-(4-phenyl-2-thiazolyl)-3-phenylguanidine was dissolved in 1-2 drops of dimethylsulfoxide and 2.5 ml. of saline. Filter paper discs, when saturated with the solution, absorbed about 50 mcg. of the compound.
(§2) Sensitivity tests were performed by a modification of the method of Herrmann, et al., Proc. Soc. Exp. Biol. & Med., 103, 625 (1960). HeLa monolayers in 150 mm plastic dishes were infected with 1.0 ml. of rhinovirus suspension known to produce destruction of 80-90% of the cells in 4 to 5 days. Following viral adsorption, the cells were overlayed with 30 ml. of Eagle's minimum essential medium containing Noble agar at 0.5%, bovine fetal serum at 2.0%, diethylaminoethyl dextran at 100 mcg/ml. and magnesium chloride at 3 millimoles. Filter discs (1/4 inch Carl Schleicher and Schuell Co., No. 740E), containing about 50 mcg. of 1-(4-phenyl-2-thiazolyl)-3-phenylguanidine, were placed on the solidified surface and the culture plates incubated at 33° C. After 4 to 5 days, the overlay medium was decanted and the cells stained with 0.1% crystal violet in 20% ethanol. A zone of 10 mm or more in which at least two-thirds of the cells were protected from viral cytopathic effects, indicates antiviral activity. The following Table III lists 35 rhinovirus serotypes which were inhibited by this compound.

[4] = tested on: Rhinovirus Type 16; assay: Viral sensitivity, filter disc method; type: cell-based; details: strain 11757; about 50 mcg per disc, HeLa
Protocol: as §1, §2

[5] = tested on: Rhinovirus Serotype 3; assay: Plaque assay, minimal inhibitory concentration; type: cell-based; details: Enterovirus; HeLa Cells; inhibiting virus plaque formation by 50%
[6] = tested on: Rhinovirus Serotype 39; assay: Plaque assay, minimal inhibitory concentration; type: cell-based; details: Enterovirus; HeLa Cells; inhibiting virus plaque formation by 50%
[7] = tested on: rhinovirus 32; assay: Clinical challenge study in volunteers, clinical symptoms and infection; type: in vivo, human; details: intranasal
[8] = tested on: Rhinovirus Serotype 1A; assay: Plaque assay, minimal inhibitory concentration; type: cell-based; details: Enterovirus; HeLa Cells; inhibiting virus plaque formation by 50%
[9] = tested on: Rhinovirus Serotype 1B; assay: Virus Yield Reduction Test; type: cell-based; details: for Virus yield: HeLa
[10] = tested on: Rhinovirus Serotype 52; assay: Plaque assay, minimal inhibitory concentration; type: cell-based; details: Enterovirus; HeLa Cells; inhibiting virus plaque formation by 50%
[11] = tested on: Rhinovirus strain 5; assay: Protection of tissue from cytopathic effects (plaque inhibition, filter paper disc or agar overlay); details: 33°, 3 to 5 days
[12] = tested on: Rhinovirus Serotype 5; assay: Plaque assay, minimal inhibitory concentration; type: cell-based; details: Enterovirus; HeLa Cells; inhibiting virus plaque formation by 50%
[13] = tested on: Rhinovirus Serotype 50; assay: Plaque assay, minimal inhibitory concentration; type: cell-based; details: Enterovirus; HeLa Cells; inhibiting virus plaque formation by 50%
[14] = tested on: Coxsackievirus B-5; assay: Plaque assay, minimal inhibitory concentration; type: cell-based; details: HeLa Cells, inhibiting virus plaque formation by 50%
[15] = tested on: Rhinovirus strain 14; assay: Protection of tissue from cytopathic effects (plaque inhibition, filter paper disc or agar overlay); details: 33°, 3 to 5 days
[16] = tested on: Coxsackievirus B-1; assay: Plaque assay, minimal inhibitory concentration; type: cell-based; details: HeLa Cells, inhibiting virus plaque formation by 50%
[17] = tested on: Coxsackievirus A-15; assay: Plaque assay, minimal inhibitory concentration; type: cell-based; details: HeLa Cells, inhibiting virus plaque formation by 50%
[18] = tested on: rhinoviruses and other picornaviruses, including coxsackie and poliovirus; type: cell-based
[19] = tested on: rhinoviruses; assay: Activity in three human epithelial cell lines; type: cell-based, rhinovirus; details: Hela, L-132 and Detroit-6
[20] = tested on: Rhinovirus Serotype 20; assay: Plaque assay, minimal inhibitory concentration; type: cell-based; details: Enterovirus; HeLa Cells; inhibiting virus plaque formation by 50%
[21] = tested on: Rhinovirus strain 23; assay: Protection of tissue from cytopathic effects (plaque inhibition, filter paper disc or agar overlay); details: 33°, 3 to 5 days
[22] = tested on: Coxsackievirus A-21; assay: Plaque assay, minimal inhibitory concentration; type: cell-based; details: HeLa Cells, inhibiting virus plaque formation by 50%
[23] = tested on: rhinovirus 32; assay: Clinical challenge study, virus isolation from nasal washings; type: in vivo, human; details: individual subjects on medication, intranasal; + or 0
[24] = tested on: Coxsackievirus A-22; assay: Plaque assay, minimal inhibitory concentration; type: cell-based; details: HeLa Cells, inhibiting virus plaque formation by 50%
[25] = tested on: Rhinovirus Serotype 23; assay: Plaque assay, minimal inhibitory concentration; type: cell-based; details: Enterovirus, inhibiting virus plaque formation by 50%
[26] = tested on: Rhinovirus Serotype 32; assay: Plaque assay, minimal inhibitory concentration; type: cell-based; details: Enterovirus; HeLa Cells; inhibiting virus plaque formation by 50%
[27] = tested on: Rhinovirus Serotype 14; assay: Plaque assay, minimal inhibitory concentration; type: cell-based; details: Enterovirus; HeLa Cells; inhibiting virus plaque formation by 50%
[28] = tested on: Rhinovirus Serotype 1B; assay: Plaque assay, minimal inhibitory concentration; type: cell-based; details: Enterovirus, inhibiting virus plaque formation by 50%
[29] = tested on: Coxsackievirus A-11; assay: Plaque assay, minimal inhibitory concentration; type: cell-based; details: HeLa Cells, inhibiting virus plaque formation by 50%
[30] = tested on: rhinovirus 32; type: in vivo, human; details: neutralization test, rhinovirus type 32

`N=C(Nc1ccccc1)Nc1nc(-c2ccccc2)cs1` [1-(4-phenyl-2-thiazolyl)-3-phenylguanidine] was tested, and the IC50 [1] was 0.4 µg/mL (≈ 1.36 µM), the IC50 [2] was 0.8 µg/mL (≈ 2.72 µM) and the “inhibition of rhinovirus serotype (zone of 10 mm or more)” value [3] was “inhibited”. The “inhibition of rhinovirus serotype (zone of 10 mm or more)” value [4] was “inhibited”, the IC50 [5] was 0.4 to 0.8 µg/mL (≈ 1.36 to 2.72 µM) and the IC50 [6] was 0.4 µg/mL (≈ 1.36 µM). For the same molecule, the “Clinical Symptom Scores” value ([7]; individual subjects on medication (No. 3, 4, 6, 7, 9, 10, 13, 14, 17, 20, in order of lines), signs and symptoms scaled 0 not present to +3 severe) was 0 and 11 and 2 and 4 and 3 and 5 and 6 and 1, the “protection of humans from rhinovirus type 32 infection” value [7] was “effective in protecting humans from rhinovirus type 32 infection” and the “volunteers who did not develop rhinovirus infection from challenge” value ([7]; rhinovirus type 32 challenge, placebo 4 of 10) was 9 of 10. The IC50 [8] was 0.2 to 0.4 µg/mL (≈ 0.679 to 1.36 µM), the “suppression of virus yield” value ([9]; 24 hours, cultures treated with 0.4 to 0.8 mcg/ml) was 1-2 logs and the Virus yield ([9]; 0.4 mcg/ml, 0 Hour to +6 Hour, 24 Hours, no drug 7.0) was 5.2 Plaque-Forming Units/ml. (Log. For the same molecule, the Virus yield ([9]; 0.4 mcg/ml, 0 Hour to +6 Hour, 48 Hours, no drug 7.0) was 5.8 Plaque-Forming Units/ml. (Log, the Virus yield ([9]; 0.4 mcg/ml, +1 Hour to +7 Hour, 24 Hours, no drug 7.0) was 6.4 Plaque-Forming Units/ml. (Log and the Virus yield ([9]; 0.4 mcg/ml, +1 Hour to +7 Hour, 48 Hours, no drug 7.2) was 7.1 Plaque-Forming Units/ml. (Log. For the same molecule, the Virus yield ([9]; 0.8 mcg/ml, 0 Hour to +6 Hour, 24 Hours, no drug 7.0) was 5.7 Plaque-Forming Units/ml. (Log, the Virus yield ([9]; 0.8 mcg/ml, 0 Hour to +6 Hour, 48 Hours, no drug 7.0) was 6.3 Plaque-Forming Units/ml. (Log and the Virus yield ([9]; 0.8 mcg/ml, +1 Hour to +7 Hour, 24 Hours, no drug 7.0) was 6.0 Plaque-Forming Units/ml. (Log. For the same molecule, the Virus yield ([9]; 0.8 mcg/ml, +1 Hour to +7 Hour, 48 Hours, no drug 7.2) was 7.4 Plaque-Forming Units/ml. (Log, the Virus yield ([9]; 1.6 mcg/ml, 0 Hour to +6 Hour, 24 Hours, no drug 7.0) was 5.5 Plaque-Forming Units/ml. (Log and the Virus yield ([9]; 1.6 mcg/ml, 0 Hour to +6 Hour, 48 Hours, no drug 7.0) was 6.2 Plaque-Forming Units/ml. (Log. For the same molecule, the Virus yield ([9]; 1.6 mcg/ml, +1 Hour to +7 Hour, 24 Hours, no drug 7.0) was 5.4 Plaque-Forming Units/ml. (Log, the Virus yield ([9]; 1.6 mcg/ml, +1 Hour to +7 Hour, 48 Hours, no drug 7.2) was 6.6 Plaque-Forming Units/ml. (Log and the Virus yield ([9]; 3.1 mcg/ml, 0 Hour to +6 Hour, 24 Hours, no drug 7.0) was 5.5 Plaque-Forming Units/ml. (Log. The Virus yield ([9]; 3.1 mcg/ml, 0 Hour to +6 Hour, 48 Hours, no drug 7.0) was 6.1 Plaque-Forming Units/ml. (Log, the Virus yield ([9]; 3.1 mcg/ml, +1 Hour to +7 Hour, 24 Hours, no drug 7.0) was 4.7 Plaque-Forming Units/ml. (Log and the Virus yield ([9]; 3.1 mcg/ml, +1 Hour to +7 Hour, 48 Hours, no drug 7.2) was 6.3 Plaque-Forming Units/ml. (Log. For the same molecule, the Virus yield ([9]; 6.2 mcg/ml, 0 Hour to +6 Hour, 24 Hours, no drug 7.0) was 5.8 Plaque-Forming Units/ml. (Log, the Virus yield ([9]; 6.2 mcg/ml, 0 Hour to +6 Hour, 48 Hours, no drug 7.0) was 6.1 Plaque-Forming Units/ml. (Log and the Virus yield ([9]; 6.2 mcg/ml, +1 Hour to +7 Hour, 24 Hours, no drug 7.0) was 4.5 Plaque-Forming Units/ml. (Log. For the same molecule, the Virus yield ([9]; 6.2 mcg/ml, +1 Hour to +7 Hour, 48 Hours, no drug 7.2) was 5.6 Plaque-Forming Units/ml. (Log, the Virus yield ([9]; 12.5 mcg/ml, +1 Hour to +7 Hour, 24 Hours, no drug 7.0) was 3.8 Plaque-Forming Units/ml. (Log and the Virus yield ([9]; 12.5 mcg/ml, +1 Hour to +7 Hour, 48 Hours, no drug 7.2) was 5.2 Plaque-Forming Units/ml. (Log. For the same molecule, the IC50 [10] was 0.4 µg/mL (≈ 1.36 µM), the “Protection of tissue from destruction by virus” value (“Protection of tissue” for short) [11] was “+” and the IC50 [12] was 0.4 to 0.8 µg/mL (≈ 1.36 to 2.72 µM). The IC50 [13] was 0.2 to 0.4 µg/mL (≈ 0.679 to 1.36 µM), the IC50 [14] was 0.8 to 1.6 µg/mL (≈ 2.72 to 5.44 µM) and the “Protection of tissue” value [15] was “+”. For the same molecule, the IC50 [16] was 1.6 to 3.1 µg/mL (≈ 5.44 to 10.5 µM), the IC50 [17] was 1.6 to 3.1 µg/mL (≈ 5.44 to 10.5 µM) and the “inhibition of virus growth” value ([18]; by inhibitory effects on virus plaque formation and virus yield) was “concentration-related inhibition”. For the same molecule, the “activity against rhinoviruses and other picornaviruses” value ([18]; human cell cultures) was “active against a broad spectrum of rhinoviruses and other picornaviruses”, the “activity against rhinoviruses in three human epithelial cell lines” value [19] was “equally active” and the IC50 [20] was 0.4 µg/mL (≈ 1.36 µM). For the same molecule, the “Protection of tissue” value [21] was “+”, the IC50 [22] was 1.6 to 3.1 µg/mL (≈ 5.44 to 10.5 µM) and the “Virus Isolation From Nasal Washings” value [23] was 0. It also gave an IC50 [24] of 1.6 to 3.1 µg/mL (≈ 5.44 to 10.5 µM), an IC50 ([25]; L132, L-132 Cells) of 0.4 to 0.8 µg/mL (≈ 1.36 to 2.72 µM) and an IC50 ([25]; HeLa Cells) of 0.2 to 0.4 µg/mL (≈ 0.679 to 1.36 µM). For the same molecule, the IC50 [26] was 0.4 µg/mL (≈ 1.36 µM), the IC50 [27] was 0.8 to 1.6 µg/mL (≈ 2.72 to 5.44 µM) and the IC50 ([28]; L132, L-132 Cells) was 0.8 µg/mL (≈ 2.72 µM). The IC50 ([28]; HeLa Cells) was 0.8 to 1.6 µg/mL (≈ 2.72 to 5.44 µM), the IC50 [29] was 1.6 to 3.1 µg/mL (≈ 5.44 to 10.5 µM) and the “antibody response of the treated subject who became clinically infected” value [30] was “no antibody response”.
